These results are taken from patent US20060281071A1, “Stearoyl-CoA desaturase assay” (priority 2005, published 2006).

Conditions in all cases: Hela microsomes 100 μg, 14C-acyl-CoA, NADH (FIG. 3)
For assay [1], the target named is T1, mSCD2 (Mus musculus, UniProt P13011).
T1 sequence (P13011 1-358): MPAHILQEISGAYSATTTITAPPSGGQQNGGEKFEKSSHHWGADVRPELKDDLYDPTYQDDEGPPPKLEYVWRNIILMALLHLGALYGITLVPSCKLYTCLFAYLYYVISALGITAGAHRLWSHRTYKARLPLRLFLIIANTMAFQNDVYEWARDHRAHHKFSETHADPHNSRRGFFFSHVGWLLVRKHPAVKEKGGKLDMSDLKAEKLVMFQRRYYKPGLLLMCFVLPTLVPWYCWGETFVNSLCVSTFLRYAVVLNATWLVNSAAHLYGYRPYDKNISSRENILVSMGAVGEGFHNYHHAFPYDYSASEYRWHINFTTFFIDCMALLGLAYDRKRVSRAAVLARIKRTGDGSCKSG
Kind of assay: Δ9-desaturase activity in microsomes of Hela cells over-expressing mSCD2. In kind it is biochemical. As to the method:
(§1) HeLa cells were cultured at 37° C. in a humidified 5% CO2 atmosphere in Dulbecco's modified Eagle's medium supplemented with 10% (v/v) fetal bovine serum and penicillin/streptomycin. The cells were resuspended in cytomix buffer (120 mM KCl, 0.15 mM CaCl2, 25 mM Hepes/KOH, pH 7.6, 2 mM EGTA, 5 mM MgCl2), and 400 μl of suspension was transferred to a 0.4-cm electroporation cuvette (Invitrogen). 35 μg of pcDNA3 DNA harboring either human or mouse SCD constructs were transfected into Hela cells which have very low Δ9-desaturase activity. DNA was added to the cell suspension in the cuvette and mixed well. The mixture was then exposed to a single electric pulse of 300 V with a capacitance of 1000 microfarads using an Invitrogen pulse system. The cells were allowed to recover in culture medium at 37° C. (5% CO2 atmosphere) for 48 h before harvesting and performing SCD activity assays.
(§2) Δ9-desaturase activity: Microsomes were purified from Hela cells by differential centrifugation and resuspended in a 0.1 M potassium phosphate buffer (pH 6.8). Δ9-desaturase activity was assayed at 25° C. for 7 minutes with either [^14C] stearoyl-CoA or [^14C] palmito-CoA, 2 mM NADH, and 100 μg microsomal protein (Miyazaki, M. et al. (2001) J Biol Chem 276, 39455-39461).

In assay [2] the target is T2, mSCD1 (Mus musculus, UniProt P13516).
T2 sequence (P13516 1-355): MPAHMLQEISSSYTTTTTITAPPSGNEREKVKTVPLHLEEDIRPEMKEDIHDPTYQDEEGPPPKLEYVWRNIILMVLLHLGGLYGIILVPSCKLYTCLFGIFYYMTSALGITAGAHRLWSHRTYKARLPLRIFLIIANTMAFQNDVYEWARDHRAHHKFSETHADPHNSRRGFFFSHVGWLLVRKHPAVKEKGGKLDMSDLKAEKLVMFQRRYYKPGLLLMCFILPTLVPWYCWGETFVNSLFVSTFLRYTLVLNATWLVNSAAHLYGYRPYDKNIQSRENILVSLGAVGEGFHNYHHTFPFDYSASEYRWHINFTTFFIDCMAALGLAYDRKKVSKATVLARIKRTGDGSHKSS
Kind of assay: Δ9-desaturase activity in microsomes of Hela cells over-expressing mSCD1. In kind it is biochemical. As to the method: as §1, §2

For assay [3], the system named is mSCD4. In words: Δ9-desaturase activity in microsomes of Hela cells over-expressing mSCD4. In kind it is biochemical, mouse. The method, then: as §1, §2
Assay [4] addresses T3, hSCD1 (Homo sapiens, UniProt O00767).
T3 sequence (O00767 1-359): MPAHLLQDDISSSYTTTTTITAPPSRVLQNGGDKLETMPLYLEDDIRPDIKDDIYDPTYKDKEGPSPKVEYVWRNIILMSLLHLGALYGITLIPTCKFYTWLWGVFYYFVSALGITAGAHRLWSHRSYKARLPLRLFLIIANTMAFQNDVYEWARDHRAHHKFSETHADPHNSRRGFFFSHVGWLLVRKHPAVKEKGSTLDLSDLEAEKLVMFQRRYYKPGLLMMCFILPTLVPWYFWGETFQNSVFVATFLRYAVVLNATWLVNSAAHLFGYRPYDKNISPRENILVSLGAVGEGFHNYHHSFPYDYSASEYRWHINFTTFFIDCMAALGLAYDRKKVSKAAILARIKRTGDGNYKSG
Kind of assay: Δ9-desaturase activity in microsomes of Hela cells over-expressing hSCD1. In kind it is biochemical. Set-up: Cloning of the full-length human and mouse SCD cDNAs: The full coding region of human SCDs; expressed in transfected cells. As to the method:
as §1, §2

For assay [5], the target named is T4, hSCD5 (Homo sapiens, UniProt Q86SK9).
T4 sequence (Q86SK9 1-330): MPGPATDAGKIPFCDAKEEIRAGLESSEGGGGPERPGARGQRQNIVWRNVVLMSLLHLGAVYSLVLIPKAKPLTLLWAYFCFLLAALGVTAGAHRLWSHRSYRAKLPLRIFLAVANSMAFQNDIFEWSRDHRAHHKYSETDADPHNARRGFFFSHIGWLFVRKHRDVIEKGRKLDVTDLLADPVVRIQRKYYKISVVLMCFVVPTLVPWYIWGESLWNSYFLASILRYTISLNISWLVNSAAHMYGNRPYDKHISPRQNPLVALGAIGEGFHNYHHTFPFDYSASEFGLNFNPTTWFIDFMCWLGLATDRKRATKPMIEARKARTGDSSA
In words: Δ9-desaturase activity in microsomes of Hela cells over-expressing hSCD5. Set-up: Cloning of the full-length human and mouse SCD cDNAs: The full coding region of human SCDs; expressed in transfected cells. The assay is classed as biochemical. The method, then: as §1, §2

As for `CCCCCCCCCCCCCCCCCC(=O)SCCNC(=O)CCNC(=O)[C@H](O)C(C)(C)COP(=O)(O)OP(=O)(O)OC[C@H]1O[C@@H](n2cnc3c(N)ncnc32)[C@H](O)[C@@H]1OP(=O)(O)O` [18:0-CoA, stearoyl-CoA], the “Δ9-desaturase activity towards 18:0-CoA relative to 16:0-CoA” value in assay [1] turned out to be 1.6 fold; in assay [2], 2.2 fold; in assay [3] it was 2.0 fold; in assay [4], 2.2 fold. Besides, in assay [5], the “utilization of 18:0-CoA relative to 16:0-CoA” value was 6 fold.
